Laboratory results published in PubChem BioAssay AID1845212 (Molecular Pharmacology Branch, DTP, NCI, 2023).
Several values for one entry are separate records, joined by “and”; a condition that tells them apart may be missing. Equal values may be shown once. Activity calls are given as the source filed them. How the source made its calls: active means viability on the fitted dose curve at most 10% of control; inactive means the rest.

System: NCI-H719 tumor spheroids, viability
Assay: Anticancer human tumor NCI-H719 cell line growth inhibition;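 on IC50: spheroids exposed to compounds for seven days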;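 on viability, T/C: spheroids exposed to compounds for seven days; percent viability relative to DMSO vehicle control as 100%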
Conditions: spheroids with HUVEC and MSC; for viability, T/C: stronger effect = lower value
Procedure, shortened: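 Complex tumor spheroids combined malignant cells with endothelial cells and mesenchymal stem cells. DNA-damaging drugs and DNA repair inhibitors were tested alone and in combination, at half-log dilutions down from clinical Cmax (top 10 microM if Cmax unknown), 0.25% DMSO final.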

**Q.** With `COc1cc(C)[nH]c(=O)c1CN1CCc2c(Cl)cc(C(OC)C3COC3)c(Cl)c2C1=O` (configuration not stated) + CC[C@@]1(O)C(=O)OCc2c1cc1n(c2=O)Cc2cc3c(CN(C)C)c(O)ccc3nc2-1 as the molecule, how does the IC50 (curve of first compound, second compound 0.003 µM) read?
**A.** > 10 µM

**Q.** What about the IC50 (curve of first compound, second compound 0.00949 µM) of the same molecule?
**A.** < 0.0316 µM

**Q.** What about the IC50 (curve of first compound, second compound 0.03 µM) of the same molecule?
**A.** < 0.0316 µM

**Q.** And the IC50 (curve of first compound, second compound 0.0949 µM)?
**A.** < 0.0316 µM

**Q.** And the IC50 (curve of first compound, second compound 0.3 µM)?
**A.** < 0.0316 µM

**Q.** And the viability, T/C (second compound 0.003 µM, first compound 0.0316 µM)?
**A.** 69.7%

**Q.** What about the viability, T/C (second compound 0.003 µM, first compound 0.1 µM) of the same molecule?
**A.** 57.6%

**Q.** And the viability, T/C (second compound 0.003 µM, first compound 0.316 µM)?
**A.** 74.2%

**Q.** And the viability, T/C (second compound 0.003 µM, first compound 1 µM)?
**A.** 65%

**Q.** What about the viability, T/C (second compound 0.003 µM, first compound 3.16 µM) of the same molecule?
**A.** 77%

**Q.** And the viability, T/C (second compound 0.003 µM, first compound 10 µM)?
**A.** 69.1%

**Q.** What about the viability, T/C (second compound 0.00949 µM, first compound 0.0316 µM) of the same molecule?
**A.** 12.2%

**Q.** And the viability, T/C (second compound 0.00949 µM, first compound 0.1 µM)?
**A.** 9.34%

**Q.** And the viability, T/C (second compound 0.00949 µM, first compound 0.316 µM)?
**A.** 9.67%

**Q.** And the viability, T/C (second compound 0.00949 µM, first compound 1 µM)?
**A.** 10.4%

**Q.** What about the viability, T/C (second compound 0.00949 µM, first compound 3.16 µM) of the same molecule?
**A.** 7.95%

**Q.** What about the viability, T/C (second compound 0.00949 µM, first compound 10 µM) of the same molecule?
**A.** 7.67%

**Q.** What about the viability, T/C (second compound 0.03 µM, first compound 0.0316 µM) of the same molecule?
**A.** 6.93%

**Q.** What about the viability, T/C (second compound 0.03 µM, first compound 0.1 µM) of the same molecule?
**A.** 8.47%

**Q.** And the viability, T/C (second compound 0.03 µM, first compound 0.316 µM)?
**A.** 6.68%

**Q.** And the viability, T/C (second compound 0.03 µM, first compound 1 µM)?
**A.** 8.32%

**Q.** And the viability, T/C (second compound 0.03 µM, first compound 3.16 µM)?
**A.** 8.79%

**Q.** What about the viability, T/C (second compound 0.03 µM, first compound 10 µM) of the same molecule?
**A.** 7.28%

**Q.** And the viability, T/C (second compound 0.0949 µM, first compound 0.0316 µM)?
**A.** 8.78%

**Q.** What about the viability, T/C (second compound 0.0949 µM, first compound 0.1 µM) of the same molecule?
**A.** 7.8%

**Q.** And the viability, T/C (second compound 0.0949 µM, first compound 0.316 µM)?
**A.** 7.84%

**Q.** And the viability, T/C (second compound 0.0949 µM, first compound 1 µM)?
**A.** 8.96%

**Q.** And the viability, T/C (second compound 0.0949 µM, first compound 3.16 µM)?
**A.** 8.75%

**Q.** What about the viability, T/C (second compound 0.0949 µM, first compound 10 µM) of the same molecule?
**A.** 8.8%

**Q.** And the viability, T/C (second compound 0.3 µM, first compound 0.0316 µM)?
**A.** 7.71%

**Q.** What about the viability, T/C (second compound 0.3 µM, first compound 0.1 µM) of the same molecule?
**A.** 9.03%

**Q.** What about the viability, T/C (second compound 0.3 µM, first compound 0.316 µM) of the same molecule?
**A.** 8.64%

**Q.** And the viability, T/C (second compound 0.3 µM, first compound 1 µM)?
**A.** 9.67%

**Q.** And the viability, T/C (second compound 0.3 µM, first compound 3.16 µM)?
**A.** 8.76%

**Q.** And the viability, T/C (second compound 0.3 µM, first compound 10 µM)?
**A.** 7.22%

**Q.** Which results are given for `COc1cc(C)[nH]c(=O)c1CN1CCc2c(Cl)cc(C(OC)C3COC3)c(Cl)c2C1=O` (configuration not stated)?
**A.** viability, T/C (compound 0.0316 µM): 100% and 103% and 101%; viability, T/C (compound 0.1 µM): 102% and 75.5% and 111%; viability, T/C (compound 0.316 µM): 108%; viability, T/C (compound 1 µM): 109% and 114% (2×); viability, T/C (compound 3.16 µM): 102% and 113% and 106%; viability, T/C (compound 10 µM): 114% and 125% and 109%; IC50 (curve of compound): > 10 µM

**Q.** For `CC(C)n1c(=O)n(C)c2cnc3cc(F)c(-c4ccc(OCCCN5CCCCC5)nc4)cc3c21` + Cn1nnc2c(C(N)=O)ncn2c1=O, which IC50 (curve of first compound, second compound 1 µM) is on record?
**A.** > 10 µM

**Q.** And the IC50 (curve of first compound, second compound 3.16 µM)?
**A.** > 10 µM

**Q.** What about the IC50 (curve of first compound, second compound 10 µM) of the same molecule?
**A.** > 10 µM

**Q.** What about the IC50 (curve of first compound, second compound 31.6 µM) of the same molecule?
**A.** > 10 µM

**Q.** And the IC50 (curve of first compound, second compound 100 µM)?
**A.** > 10 µM

**Q.** What about the viability, T/C (second compound 1 µM, first compound 0.0316 µM) of the same molecule?
**A.** 94.3%

**Q.** What about the viability, T/C (second compound 1 µM, first compound 0.1 µM) of the same molecule?
**A.** 107%

**Q.** What about the outcome (second compound 1 µM, first compound 0.316 µM) of the same molecule?
**A.** inactive

**Q.** And the viability, T/C (second compound 1 µM, first compound 1 µM)?
**A.** 79.8%

**Q.** And the viability, T/C (second compound 1 µM, first compound 3.16 µM)?
**A.** 139%

**Q.** And the viability, T/C (second compound 1 µM, first compound 10 µM)?
**A.** 95.2%

**Q.** And the viability, T/C (second compound 3.16 µM, first compound 0.0316 µM)?
**A.** 89.4%

**Q.** What about the viability, T/C (second compound 3.16 µM, first compound 0.1 µM) of the same molecule?
**A.** 109%

**Q.** What about the viability, T/C (second compound 3.16 µM, first compound 0.316 µM) of the same molecule?
**A.** 111%

**Q.** And the viability, T/C (second compound 3.16 µM, first compound 1 µM)?
**A.** 87.8%

**Q.** And the viability, T/C (second compound 3.16 µM, first compound 3.16 µM)?
**A.** 148%

**Q.** And the viability, T/C (second compound 3.16 µM, first compound 10 µM)?
**A.** 116%

**Q.** And the viability, T/C (second compound 10 µM, first compound 0.0316 µM)?
**A.** 109%

**Q.** What about the viability, T/C (second compound 10 µM, first compound 0.1 µM) of the same molecule?
**A.** 104%

**Q.** And the viability, T/C (second compound 10 µM, first compound 0.316 µM)?
**A.** 103%

**Q.** What about the viability, T/C (second compound 10 µM, first compound 1 µM) of the same molecule?
**A.** 89.2%

**Q.** And the viability, T/C (second compound 10 µM, first compound 3.16 µM)?
**A.** 141%

**Q.** What about the viability, T/C (second compound 10 µM, first compound 10 µM) of the same molecule?
**A.** 112%

**Q.** And the viability, T/C (second compound 31.6 µM, first compound 0.0316 µM)?
**A.** 119%

**Q.** And the viability, T/C (second compound 31.6 µM, first compound 0.1 µM)?
**A.** 118%

**Q.** What about the viability, T/C (second compound 31.6 µM, first compound 0.316 µM) of the same molecule?
**A.** 114%

**Q.** And the viability, T/C (second compound 31.6 µM, first compound 1 µM)?
**A.** 97.2%

**Q.** What about the viability, T/C (second compound 31.6 µM, first compound 3.16 µM) of the same molecule?
**A.** 110%

**Q.** And the viability, T/C (second compound 31.6 µM, first compound 10 µM)?
**A.** 94.4%

**Q.** And the viability, T/C (second compound 100 µM, first compound 0.0316 µM)?
**A.** 104%

**Q.** What about the viability, T/C (second compound 100 µM, first compound 0.1 µM) of the same molecule?
**A.** 86.8%

**Q.** And the viability, T/C (second compound 100 µM, first compound 0.316 µM)?
**A.** 83.7%

**Q.** And the viability, T/C (second compound 100 µM, first compound 1 µM)?
**A.** 74.6%

**Q.** What about the viability, T/C (second compound 100 µM, first compound 3.16 µM) of the same molecule?
**A.** 82.5%

**Q.** What about the viability, T/C (second compound 100 µM, first compound 10 µM) of the same molecule?
**A.** 68.5%
